Assay results from PMC9675754, “Structure of the human heparan sulfate polymerase complex EXT1-EXT2” (Nature Communications, 2022).
Substitutions are numbered along the chain they refer to.

T1: EXT1-EXT2 complex (EXT1 GlcA-T site) (Homo sapiens, UniProt Q16394)
T1 construct: 1:1 heterodimer of Golgi-luminal parts, transmembrane helix removed (EXT1 aa29-746, EXT2 aa47-718), C-terminal 8xHis kept, secreted alkaline phosphatase fusion cut off with TEV; co-expressed in FreeStyle 293-F; about 160 kDa; with Exostosin-2
T1 sequence (Q16394 29-746): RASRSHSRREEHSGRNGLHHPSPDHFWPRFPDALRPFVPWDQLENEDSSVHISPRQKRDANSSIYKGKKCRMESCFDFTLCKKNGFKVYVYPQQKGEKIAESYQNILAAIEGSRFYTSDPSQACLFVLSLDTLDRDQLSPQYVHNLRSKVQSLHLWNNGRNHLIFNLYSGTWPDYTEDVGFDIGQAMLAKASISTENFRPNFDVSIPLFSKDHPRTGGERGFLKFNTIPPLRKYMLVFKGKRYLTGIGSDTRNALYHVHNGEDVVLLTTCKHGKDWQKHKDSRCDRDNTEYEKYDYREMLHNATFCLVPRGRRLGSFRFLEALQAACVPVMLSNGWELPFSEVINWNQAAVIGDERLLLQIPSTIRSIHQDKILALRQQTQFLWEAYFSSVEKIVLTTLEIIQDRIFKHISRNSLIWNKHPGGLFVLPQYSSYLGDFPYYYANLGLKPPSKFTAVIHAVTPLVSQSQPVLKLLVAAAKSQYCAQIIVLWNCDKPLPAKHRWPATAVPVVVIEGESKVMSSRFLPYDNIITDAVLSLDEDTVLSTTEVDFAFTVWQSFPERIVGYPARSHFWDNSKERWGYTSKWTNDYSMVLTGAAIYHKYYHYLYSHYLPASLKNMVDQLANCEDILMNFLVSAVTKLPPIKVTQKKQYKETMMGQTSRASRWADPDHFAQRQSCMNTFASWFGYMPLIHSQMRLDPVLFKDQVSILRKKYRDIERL
T1 sequence (Q93063 47-718 partner): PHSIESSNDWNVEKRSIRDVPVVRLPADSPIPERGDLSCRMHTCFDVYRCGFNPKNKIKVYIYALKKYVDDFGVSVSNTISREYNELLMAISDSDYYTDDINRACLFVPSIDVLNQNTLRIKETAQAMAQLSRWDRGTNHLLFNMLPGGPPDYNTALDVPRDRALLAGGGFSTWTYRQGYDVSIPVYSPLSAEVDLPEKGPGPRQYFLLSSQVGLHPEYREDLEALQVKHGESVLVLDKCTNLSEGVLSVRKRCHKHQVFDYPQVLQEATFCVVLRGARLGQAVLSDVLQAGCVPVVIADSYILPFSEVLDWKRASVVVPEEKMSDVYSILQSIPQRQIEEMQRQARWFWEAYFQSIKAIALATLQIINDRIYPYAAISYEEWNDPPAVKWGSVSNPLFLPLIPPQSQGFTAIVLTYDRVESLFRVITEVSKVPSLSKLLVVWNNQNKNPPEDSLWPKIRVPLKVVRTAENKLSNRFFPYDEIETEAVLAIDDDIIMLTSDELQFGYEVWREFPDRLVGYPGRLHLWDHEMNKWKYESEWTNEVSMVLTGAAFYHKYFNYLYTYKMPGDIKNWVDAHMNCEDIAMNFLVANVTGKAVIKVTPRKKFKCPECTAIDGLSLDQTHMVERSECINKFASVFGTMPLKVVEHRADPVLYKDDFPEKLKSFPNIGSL

T2: EXT1-EXT2 complex (GlcNAc-T sites of EXT1 and EXT2) (Homo sapiens, UniProt Q16394+Q93063)
T2 construct: same complex as P1; separate entry only because each chain has its own GlcNAc-T site; 1:1 heterodimer (EXT1 aa29-746, EXT2 aa47-718), C-terminal 8xHis kept, alkaline phosphatase fusion cut off with TEV; FreeStyle 293-F
T2 sequence (Q16394 29-746): T1 sequence (Q16394 29-746)
T2 sequence (Q93063 47-718): T1 sequence (Q93063 47-718 partner)

T3: human EXT1 aa29-aa746 D162N/D164N (human, UniProt Q16394 29-746, D162N | D164N)
T3 construct: exostosin-1 (EXT1), human, residues 29-746, with point mutations in the GlcA-T domain; also called EXT1 D162N/D164N; source: FreeStyle 293-F cells, co-expressed with wild-type EXT2, purified as the wild-type complex; not shown: secreted alkaline phosphatase, N-terminal, cleaved; 8x His, C-terminal, kept
T3 sequence (looked up): T1 sequence (Q16394 29-746) with D134N, D136N

B1: human EXT1 (exostosin-1), N-terminally truncated, aa29-aa746 (enzyme, UniProt Q16394 29-746, looked up)
chain: T1 sequence (Q16394 29-746)
modifications: N-linked glycan at Asn330
notes: exostosin-1 (EXT1), human, residues 29-746, lacking the N-terminal transmembrane helix; Only obtained by co-expression with EXT2; Model built for aa89-aa728 with some loops missing; also called EXT1 WT; not shown: secreted alkaline phosphatase, N-terminal, cleaved; 8x His, C-terminal, kept
B2: human EXT2 (exostosin-2), N-terminally truncated, aa47-aa718 (enzyme, UniProt Q93063 47-718, looked up)
chain: T1 sequence (Q93063 47-718 partner)
modifications: N-linked glycan at Asn637
notes: exostosin-2 (EXT2), human, residues 47-718, lacking the N-terminal transmembrane helix; Only obtained by co-expression with EXT1; Model built for aa78-aa702 with some loops missing; also called EXT2 WT; not shown: secreted alkaline phosphatase, N-terminal, cleaved; 8x His, C-terminal, kept

Tests used:
[1] = molecular target: T1, EXT1-EXT2 complex (EXT1 GlcA-T site); assay: FACE glycosyl transfer assay; assay type: biochemical; settings: acceptor Alexa Fluor 430-labelled dp9 5 uM; 1 mM UDP-GlcA; 10 mM MnCl2; pH 7.2; 30 C; EXT1 GlcA-T domain
[2] = molecular target: T2, EXT1-EXT2 complex (GlcNAc-T sites of EXT1 and EXT2); assay: FACE glycosyl transfer assay; assay type: biochemical; settings: acceptor Alexa Fluor 430-labelled dp8 5 uM; 1 mM UDP-GlcNAc; 10 mM MnCl2; pH 7.2; 30 C; GlcNAc-T domains of EXT1 and EXT2
[3] = molecular target: T1, EXT1-EXT2 complex (EXT1 GlcA-T site); assay: cryo-EM structure, […] A; assay type: binding; settings: EXT1 GlcA-T active site; UDP-GlcA, UDP-GlcNAc and MnCl2 1 mM each added, only UDP seen; pH 7.2
[4] = molecular target: B2; assay: cryo-EM structure; 0.4 mg/mL purified, co-expressed EXT1-EXT2 with 1 mM UDP-GlcNAc, 1 mM UDP-GlcA and 1 mM MnCl2; single-particle analysis, 2.8 Å; settings: both partners purified
[5] = molecular target: T3, human EXT1 aa29-aa746 D162N/D164N; assay: negative stain EM; purified complex diluted to 0.02 mg/mL in buffer A (50 mM Tris pH 7.8, 150 mM NaCl); mica-carbon flotation; settings: both partners purified
[6] = molecular target: B1; assay: cryo-EM structure; 0.4 mg/mL purified, co-expressed EXT1-EXT2 with 1 mM UDP-GlcNAc, 1 mM UDP-GlcA and 1 mM MnCl2; single-particle analysis, 2.8 Å; settings: both partners purified

In the case of `O=C(O)[C@H]1O[C@H](OP(=O)(O)OP(=O)(O)OC[C@H]2O[C@@H](n3ccc(=O)[nH]c3=O)[C@H](O)[C@@H]2O)[C@H](O)[C@@H](O)[C@@H]1O` [UDP-GlcA], the “FACE glycosyl transfer assay” value [1] is reported as “the addition of a GlcA moiety onto dp9 enhanced the migration rate”.

`CC(=O)N[C@H]1[C@@H](OP(=O)(O)OP(=O)(O)OC[C@H]2O[C@@H](n3ccc(=O)[nH]c3=O)[C@H](O)[C@@H]2O)O[C@H](CO)[C@@H](O)[C@@H]1O` [UDP-GlcNAc] was tested, and the “FACE glycosyl transfer assay” value [2] was “the transfer of a GlcNAc residue onto dp8 led to a slower migration rate”.

`O=c1ccn([C@@H]2O[C@H](COP(=O)(O)OP(=O)(O)O)[C@@H](O)[C@H]2O)c(=O)[nH]1` [UDP] was tested, and the “cryo-EM structure, 2.8 A” value [3] was “we found an additional EM density that fits a UDP ligand”.

B1 was tested, and the “stoichiometry N” value [4] was 1.

B2: binds [5]; binds [6].
